Read-outs that look alike come from different tables or passages of the source.
Experiments:
[1] = biological target: T1, XIAP BIR2-3 (Homo sapiens, UniProt P98170, C202A/C213G); assay: XIAP-BIR2-3 dimeric SMAC Peptide Homogeneous Time Resolved Fluorescence (HTRF) Assay; assay type: binding
T1 construct: His-BIR2-3 (125-356, C202A/C213G, XIAP)
Protocol: B. […] Assays were performed in black, flat-bottom, 384-well plates. […] Compounds were dissolved at 3 mM in dimethylsulfoxide (DMSO) and evaluated at eleven serially diluted concentrations. IC50 and Ki values were derived by non-linear regression analysis.

[2] = biological target: T2, XIAP BIR3 (Homo sapiens, UniProt P98170); assay: XIAP-BIR3/SMAC Homogeneous Time Resolved Fluorescence (HTRF) Assay; assay type: binding
T2 construct: His-BIR3 (241-356, XIAP)
T2 sequence (P98170 241-356): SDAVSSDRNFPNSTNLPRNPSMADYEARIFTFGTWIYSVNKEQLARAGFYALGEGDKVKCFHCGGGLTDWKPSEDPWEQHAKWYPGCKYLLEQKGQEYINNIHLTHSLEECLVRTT
In short: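 Competition HTRF between XIAP-BIR3 and SMAC; reaction 60 min at room temperature, then anti-6×His-terbium Fab detection for a further 30 min.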

[3] = 0.5 nM N-His-BIR2-3 (125-356, C202A/C213G, XIAP), 20 nM fluorescein labeled dimeric SMAC peptide, HTRF signal, read-out: XIAP BIR2-3 IC50
[4] = 1 nM N-His-BIR3 (241-356, XIAP), 5 nM fluorescein labeled SMAC peptide, HTRF signal, read-out: XIAP BIR3 IC50

T1 sequence (P98170 125-356 C202A/C213G): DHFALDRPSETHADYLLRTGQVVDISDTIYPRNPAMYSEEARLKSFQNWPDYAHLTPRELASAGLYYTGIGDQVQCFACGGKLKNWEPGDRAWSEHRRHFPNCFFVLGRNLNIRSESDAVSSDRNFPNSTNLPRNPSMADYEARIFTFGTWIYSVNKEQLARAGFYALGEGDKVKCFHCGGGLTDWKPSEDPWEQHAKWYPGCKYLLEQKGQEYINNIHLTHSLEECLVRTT

CC[C@H](NC)C(=O)N[C@H](C(=O)N1C[C@@H](NC(=O)c2ccc3c(c2)CN(C(=O)[C@@H](NC(=O)[C@H](C)NC)C(C)(C)C)[C@H](C(=O)N[C@@H]2CCCc4ccccc42)C3)C[C@H]1C(=O)N[C@@H]1CCCc2ccccc21)C(C)(C)C [Example 15, (S)-N^7-((3S,5S)-1-((S)-3,3-Dimethyl-2-((S)-2-(methylamino)butanamido)butanoyl)-5-(((R)-1,2,3,4-tetrahydronaphthalen-1-yl)carbamoyl)pyrrolidin-3-yl)-2-((S)-3,3-dimethyl-2-((S)-2-(methylamino)propanamido)butanoyl)-N^3-((R)-1,2,3,4-tetrahydronaphthalen-1-yl)-1,2,3,4-tetrahydroisoquinoline-3,7-dicarboxamide]
IC50 [1, 3]: 5 nM
IC50 [2, 4]: 16 nM

CN[C@@H](C)C(=O)N[C@H](C(=O)N1Cc2cc([C@H]3C[C@@H](C(=O)N[C@@H]4CCCc5ccccc54)N(C(=O)[C@@H](NC(=O)[C@H](C)NC)C(C)(C)C)C3)ccc2C[C@H]1C(=O)N[C@@H](Cc1ccccc1)C(=O)O)C(C)(C)C [Example 41, (S)-2-((S)-2-((S)-3,3-Dimethyl-2-((S)-2-(methylamino)propanamido)butanoyl)-7-((3R,5S)-1-((S)-3,3-dimethyl-2-((S)-2-(methylamino)propanamido)butanoyl)-5-(((R)-1,2,3,4-tetrahydronaphthalen-1-yl)carbamoyl)pyrrolidin-3-yl)-1,2,3,4-tetrahydroisoquinoline-3-carboxamido)-3-phenylpropanoic acid]
IC50 [1, 3]: 1.5 nM
IC50 [2, 4]: 4.6 nM

CN[C@@H](C)C(=O)N[C@H](C(=O)N1CC(c2ccc3c(c2)CN(C(=O)[C@@H](NC(=O)[C@H](C)NC)C(C)(C)C)[C@H](C(=O)NC2CCCc4ccccc42)C3)C[C@H]1C(=O)NC(Cc1ccccc1)C(=O)NCc1ccc(OC)cc1)C(C)(C)C (stereo in doubt) [Example 70, (S)-2-((S)-3,3-Dimethyl-2-((S)-2-(methylamino)propanamido)butanoyl)-7-((3S,5S)-1-((S)-3,3-dimethyl-2-((S)-2-(methylamino)propanamido)butanoyl)-5-(((S)-1-((4-methoxybenzyl)amino)-1-oxo-3-phenylpropan-2-yl)carbamoyl)pyrrolidin-3-yl)-N-((R)-1,2,3,4-tetrahydronaphthalen-1-yl)-1,2,3,4-tetrahydroisoquinoline-3-carboxamide]
IC50 [1, 3]: 2.2 nM
IC50 [2, 4]: 8.9 nM

CN[C@@H](C)C(=O)N[C@H](C(=O)N1C[C@@H](c2ccc3c(c2)CN(C(=O)[C@@H](NC(=O)[C@H](C)NC)C(C)(C)C)[C@H](C(=O)N[C@@H]2CCCc4ccccc42)C3)C[C@H]1C(=O)N[C@@H](Cc1ccccc1)C(=O)NC(C)C)C(C)(C)C [Example 56, (S)-2-((S)-3,3-Dimethyl-2-((S)-2-(methylamino)propanamido)butanoyl)-7-((3R,5S)-1-((S)-3,3-dimethyl-2-((S)-2-(methylamino)propanamido)butanoyl)-5-(((S)-1-(isopropylamino)-1-oxo-3-phenylpropan-2-yl)carbamoyl)pyrrolidin-3-yl)-N-((R)-1,2,3,4-tetrahydronaphthalen-1-yl)-1,2,3,4-tetrahydroisoquinoline-3-carboxamide]
IC50 [1]: 2 nM
IC50 [2]: 8.8 nM

CN[C@@H](C)C(=O)N[C@H](C(=O)N1C[C@@H](c2ccc3c(c2)CN(C(=O)[C@@H](NC(=O)[C@H](C)NC)C(C)(C)C)[C@H](C(=O)N[C@@H]2CCCc4ccccc42)C3)C[C@H]1C(=O)N[C@@H](Cc1ccccc1)C(=O)Nc1ccc(-c2cnco2)cc1)C(C)(C)C [Example 57, (S)-2-((S)-3,3-Dimethyl-2-((S)-2-(methylamino)propanamido)butanoyl)-7-((3R,5S)-1-((S)-3,3-dimethyl-2-((S)-2-(methylamino)propanamido)butanoyl)-5-(((S)-1-((4-(oxazol-5-yl)phenyl)amino)-1-oxo-3-phenylpropan-2-yl)carbamoyl)pyrrolidin-3-yl)-N-((R)-1,2,3,4-tetrahydronaphthalen-1-yl)-1,2,3,4-tetrahydroisoquinoline-3-carboxamide]
IC50 [1, 3]: 2.6 nM
IC50 [2, 4]: 9.9 nM

CN[C@@H](C)C(=O)N[C@H](C(=O)N1Cc2cc(C(=O)N[C@H]3C[C@@H](C(=O)N[C@@H]4CCCc5ccccc54)N(C(=O)[C@@H](NC(=O)[C@H](C)NC)C(C)(C)C)C3)ccc2C[C@H]1C(=O)N[C@@H]1CCCc2ccccc21)C(C)(C)C [Example 1, (S)-2-((S)-3,3-Dimethyl-2-((S)-2-(methylamino)propanamido)butanoyl)-N^7-((3S,5S)-1-((S)-3,3-dimethyl-2-((S)-2-(methylamino)propanamido)butanoyl)-5-(((R)-1,2,3,4-tetrahydronaphthalen-1-yl)carbamoyl)pyrrolidin-3-yl)-N^3—((R)-1,2,3,4-tetrahydronaphthalen-1-yl)-1,2,3,4-tetrahydroisoquinoline-3,7-dicarboxamide]
IC50 [1]: 3 nM
IC50 [2]: 11 nM

CCC(CC)[C@H](NC(=O)[C@H](CC)NC)C(=O)N1Cc2cc(C(=O)N[C@H]3C[C@@H](C(=O)N[C@@H]4CCCc5ccccc54)N(C(=O)[C@@H](NC(=O)[C@H](C)NC)C(C)(C)C)C3)ccc2C[C@H]1C(=O)N[C@@H]1CCCc2ccccc21 [Example 19, (S)-N^7-((3S,5S)-1-((S)-3,3-Dimethyl-2-((S)-2-(methylamino)propanamido)butanoyl)-5-(((R)-1,2,3,4-tetrahydronaphthalen-1-yl)carbamoyl)pyrrolidin-3-yl)-2-((S)-3-ethyl-2-((S)-2-(methylamino)butanamido)pentanoyl)-N^3-((R)-1,2,3,4-tetrahydronaphthalen-1-yl)-1,2,3,4-tetrahydroisoquinoline-3,7-dicarboxamide]
IC50 [1, 3]: 2 nM
IC50 [2, 4]: 7 nM

CN[C@@H](C)C(=O)N[C@H](C(=O)N1C[C@@H](c2ccc3c(c2)CN(C(=O)[C@@H](NC(=O)[C@H](C)NC)C(C)(C)C)[C@H](C(=O)N[C@@H]2CCCc4ccccc42)C3)C[C@H]1C(=O)N[C@@H](Cc1ccccc1)C(=O)OC)C(C)(C)C [Example 76, (S)-Methyl 2-((2S,4R)-1-((S)-3,3-dimethyl-2-((S)-2-(methylamino)propanamido)butanoyl)-4-((S)-2-((S)-3,3-dimethyl-2-((S)-2-(methylamino)propanamido)butanoyl)-3-(((R)-1,2,3,4-tetrahydronaphthalen-1-yl)carbamoyl)-1,2,3,4-tetrahydroisoquinolin-7-yl)pyrrolidine-2-carboxamido)-3-phenylpropanoate]
IC50 [1]: 2.5 nM
IC50 [2]: 18.9 nM

CN[C@@H](C)C(=O)N[C@H](C(=O)N1Cc2cc([C@H]3C[C@@H](C(=O)N[C@@H]4CCCc5ccccc54)N(C(=O)[C@@H](NC(=O)[C@H](C)NC)C(C)(C)C)C3)ccc2C[C@H]1C(=O)N[C@@H]1CCCc2ccccc21)C(C)(C)C [Example 22, (S)-2-((S)-3,3-Dimethyl-2-((S)-2-(methylamino)propanamido)butanoyl)-7-((3R,5S)-1-((S)-3,3-dimethyl-2-((S)-2-(methylamino)propanamido)butanoyl)-5-(((R)-1,2,3,4-tetrahydronaphthalen-1-yl)carbamoyl)pyrrolidin-3-yl)-N—((R)-1,2,3,4-tetrahydronaphthalen-1-yl)-1,2,3,4-tetrahydroisoquinoline-3-carboxamide]
IC50 [1]: 1 nM
IC50 [2]: 2 nM

CC[C@H](NC)C(=O)N[C@H](C(=O)N1Cc2cc(C(=O)N[C@H]3C[C@@H](C(=O)N[C@@H]4CCCc5ccccc54)N(C(=O)[C@@H](NC(=O)[C@H](C)NC)C(C)(C)C)C3)ccc2C[C@H]1C(=O)N[C@@H]1CCCc2ccccc21)C(C)(C)C [Example 3, (S)-2-((S)-3,3-Dimethyl-2-((S)-2-(methylamino)butanamido)butanoyl)-N^7-((3S,5S)-1-((S)-3,3-dimethyl-2-((S)-2-(methylamino)propanamido)butanoyl)-5-(((R)-1,2,3,4-tetrahydronaphthalen-1-yl)carbamoyl)pyrrolidin-3-yl)-N^3-((R)-1,2,3,4-tetrahydronaphthalen-1-yl)-1,2,3,4-tetrahydroisoquinoline-3,7-dicarboxamide]
IC50 [1, 3]: 3 nM
IC50 [2, 4]: 6 nM

CN[C@@H](C)C(=O)N[C@H](C(=O)N1CC(c2ccc3c(c2)CN(C(=O)[C@@H](NC(=O)[C@H](C)NC)C(C)(C)C)[C@H](C(=O)NC2CCCc4ccccc42)C3)C[C@H]1C(=O)NC(Cc1ccccc1)C(=O)N(C)Cc1ccccc1)C(C)(C)C (stereo in doubt) [Example 72, (S)-7-((3S,5S)-5-(((S)-1-(Benzyl(methyl)amino)-1-oxo-3-phenylpropan-2-yl)carbamoyl)-1-((S)-3,3-dimethyl-2-((S)-2-(methylamino)propanamido)butanoyl)pyrrolidin-3-yl)-2-((S)-3,3-dimethyl-2-((S)-2-(methylamino)propanamido)butanoyl)-N-((R)-1,2,3,4-tetrahydronaphthalen-1-yl)-1,2,3,4-tetrahydroisoquinoline-3-carboxamide]
IC50 [1, 3]: 3.3 nM
IC50 [2, 4]: 16.5 nM

CN[C@@H](C)C(=O)N[C@@H](Cc1cc(F)cc(F)c1)C(=O)N1Cc2cc(C(=O)N[C@H]3C[C@@H](C(=O)N[C@@H]4CCCc5ccccc54)N(C(=O)[C@@H](NC(=O)[C@H](C)NC)C(C)(C)C)C3)ccc2C[C@H]1C(=O)N[C@@H]1CCCc2ccccc21 [Example 11, (S)-2-((S)-3-(3,5-Difluorophenyl)-2-((S)-2-(methylamino)propanamido)propanoyl)-N^7-((3S,5S)-1-((S)-3,3-dimethyl-2-((S)-2-(methylamino)propanamido)butanoyl)-5-(((R)-1,2,3,4-tetrahydronaphthalen-1-yl)carbamoyl)pyrrolidin-3-yl)-N^3-((R)-1,2,3,4-tetrahydronaphthalen-1-yl)-1,2,3,4-tetrahydroisoquinoline-3,7-dicarboxamide]
IC50 [1, 3]: 10 nM
IC50 [2, 4]: 25 nM
